Data taken from patent US9265253B2, “Use of macrocyclic picolinamides as fungicides” (DOW AGROSCIENCES LLC, priority 2013, dated 2016).
Read-outs that look alike come from different tables or passages of the source.

Tests used:
[1] = tested on: Blumeria graminis f. sp. tritici; Synonym: Erysiphe graminis f. sp. tritici; assay: Wheat Powdery Mildew (ERYSGT) disease control; assay type: in vivo; conditions: 100 ppm, 1 Day Protectant
Procedure: Technical grades of materials were dissolved in acetone, which were then mixed with nine volumes of water containing 110 ppm Triton X-100. The fungicide solutions were applied onto wheat seedlings using an automated booth sprayer to run-off. All sprayed plants were allowed to air dry prior to further handling. All fungicides were evaluated using the aforementioned method for their activity vs. all target diseases. Wheat leaf blotch and brown rust activity were also evaluated using track spray applications, in which case the fungicides were formulated as EC formulations, containing 0.1% Trycol 5941 in the spray solutions. Wheat plants (variety Yuma) were grown from seed in a greenhouse in 50% mineral soil/50% soil-less Metro mix until the first leaf was fully emerged, with 7-10 seedlings per pot. These plants were inoculated with an aqueous spore suspension of Septoria tritici either prior to or after fungicide treatments. […] When disease symptoms were fully expressed on the 1st leaves of untreated plants, infection levels were assessed on a scale of 0 to 100 percent disease severity. Percent disease control was calculated using the ratio of disease severity on treated plants relative to untreated plants. […]

[2] = tested on: Phakopsora pachyrhizi; assay: Asian Soybean Rust (PHAKPA) disease control; assay type: in vivo; conditions: Phakopsora pachyrhizi, topical
Procedure: Technical grades of materials were dissolved in acetone, which were then mixed with nine volumes of water containing 0.011% Tween 20. The fungicide solutions were applied onto soybean seedlings using an automated booth sprayer to run-off. All sprayed plants were allowed to air dry prior to further handling.
Soybean plants (variety Williams 82) were grown in soil-less Metro mix, with one plant per pot. Two weeks old seedlings were used for testing. Plants were inoculated either 3 days prior to or 1 day after fungicide treatments. Plants were incubated for 24 h in a dark dew room at 22° C. and 100% RH then transferred to a growth room at 23° C. for disease to develop. Disease severity was assessed on the sprayed leaves.

With COc1ccnc(C(=O)N[C@H]2CCC[C@H](Cc3ccccc3)[C@@H](OCC(C)C)[C@H](C)OC2=O)c1OCOC(=O)C(C)C [Compound F151] the “Disease Control ERYSGT 1 DP” value [1] was “A (80-100)”, the melting point was 122 to 124 °C and the pest or weed control at 25 ppm ([2]; 24 h, 1 Day Protectant, read-out: Disease Control PHAKPA 1DP) was 80 to 100%. For the same molecule, the pest or weed control at 25 ppm ([2]; 72 h, 3 Day Curative, read-out: Disease Control PHAKPA 3DC) was 80 to 100%.
